{"source": "patent US8420307B2", "about": "“Sperm cryoprotective media” (The Jackson Laboratory, priority 2006, dated 2013)", "key": {"[1]": {"test_system": "reactive oxygen species within cryopreserved mouse sperm", "assay": "Intracellular reactive oxygen species by CM-H2DCFDA dye and flow cytometry after tert-butyl hydroperoxide challenge", "type": "cell-based", "settings": "for level of reactive oxygen species within cryopreserved mouse sperm (relative fluorescence): C57BL/6 sperm, diluted 1:1 with solution supplemented with 954 mM MTG, 1 mM GSH or 2 mM DTT before freezing, FIGS. 7A and 7B", "protocol": "Sperm cryopreserved in the presence and absence of the free radical scavenger, the reducing agent monothioglycerol (MTG), are loaded with the green fluorescent dye CM-H2DCFDA to measure intracellular reactive oxygen species. The sperm are challenged with varying levels of Tert-Butylhydrogen peroxide to induce oxidative damage and green fluorescence is measured using flow cytometry.\nFor example, the capability to reduce ROS can be tested by a dye/sperm method as described in Example 4 and also see publications by Nelid et al 2006 and Guthrie and Welch 2006. Either fresh or cryopreserved sperm can be used in this assay. For example, sperm collected from the vas deferens and epididymis of two C57BL/6J mice into 1 mL of a solution containing 3% skim milk (w/v; BD Diagnostics; cat #232100) and 18% raffinose (w/v; Sigma; cat #R7630). A fraction of the collected sperm was diluted 1:1 in the same skim milk raffinose solution while another fraction was diluted 1:1 using the skim milk raffinose solution supplemented with […] monothioglycerol (MTG; Sigma Aldrich; cat #M6145). Another set of C57BL/6J males was used to collect sperm and dilute in the skim milk raffinose solution with 1 mM glutathione (GSH; Sigma Aldrich; cat #G6013) or 2 mM dithiothreitol (DTT; Sigma Aldrich; cat #646563). The sperm was cryopreserved as described in Example 1 and stored in liquid nitrogen for at least 24 hours.\nTo determine if MTG, GSH or DTT can act as a free radical scavenger, the sperm were thawed and loaded with the green fluorescent dye 5-(and-6)-chloromethyl-2′,7′-dichlorodihydrofluorescein diacetate (CM-H2DCFDA; Invitrogen C6827). This dye is a cell-permeant indicator for reactive oxygen species that is nonfluorescent until removal of the acetate groups by intracellular esterases and oxidation occurs within the cell. The emission of fluorescence correlates with ROS generation as a result of DCFH oxidation. To load the sperm, at least 150 μL of sperm were thawed and diluted 1:1 in a sperm incubation media described by Bath et al. ((Bath 2003); 123 mM NaCl; 4.7 mM KCl; 0.2 mM MgSO4.7H2O; 10 mM;NaHCO3 21 mM HEPES; 0.33 mM sodium pyruvate; 4.6 mM glucose; 100 IU/mL penicillin G; 1.33 mg/mL BSA). The lyophilized dye was resuspended in dimethylsulfoxide to a concentration of 432.5 μM and then added to the cells, such that the final dye concentration was 40 μM. […] The samples were loaded onto either a FACScan (BD Biosciences; Franklin Lakes, N.J.) or FACSCalibur (BD Biosciences; Franklin Lakes, N.J.) flow cytometer and the green fluorescence was measured on at about 5,000 viable sperm. […]"}, "[2]": {"test_system": "C57BL/6 Sperm", "assay": "Post-thaw motility of mouse sperm (IVOS computerized semen analysis)", "type": "cell-based", "settings": "for IVF Fit: motility of at least 5% is required to achieve fertilization in IVF", "protocol": "To determine the concentration, motility, and progressive motility of “freshly-collected” sperm, the sperm is typically diluted 1:20 in either phosphate buffered saline or Cooks Mouse Vitro Fert (Cook Australia; Queensland, Australia; (Quinn et al., 1995)). To assess thawed sperm, sperm is incubated in IVF medium for an hour, at a dilution of 1:50 in the IVF drop. It is then loaded into a Hamilton Thom IVOS computerized semen analyzer (Hamilton Thom, Beverly, Mass.). For measurement, the calibration parameters are set as follows: • Apply Sort: 2 • Frames acquired: 30 • Frame rate: 60 Hz • Minimum contrast: 30 • Minimum Cell Size: 4 pixels • Minimum Static Contrast: 15 • Straightness (STR), Threshold: 50% • Low VAP Cutoff: 10.0 μm/s • Medium VAP Cutoff: 50.0 μmis • Low VSL Cutoff: 0.0 grids • Head Size, Non-Motile: 13 pixels • Head Intensity, Non-Motile: 75 • Static Head Size: 0.57 to 2.91 • Static Head Intensity: 0.14 to 1.84 • Static Elongation: 0 to 87 • Slow Cells Motile: YES • Magnification: 0.82 • Video Source Camera • Video Frequency: 60 • Bright Field No • Brightness for LED: 2663 • Brightness for Ident: 3000 • Temperature, Set: 37° C.\nIf the compound is capable of reducing ROS at the tested concentration, then its effect on sperm motility and fertilization is tested. While the sperm motility assay is a helpful fast screening tool in the case of mouse, this assay is not required for mouse and one can perform only the IVF assay in the case of mouse. For other species, e.g. bovine, the sperm motility assay together with the fluorescence assay is sufficient. The sperm motility assay can be done either with fresh or cryopreserved sperm. For example, the motility can be determined as described in Example 6 (Determination of Sperm Concentration and Motility), using an IVOS instrument. Briefly, C57BL/6 sperm were diluted 1:50 in pre-warmed and gassed mouse vitro fert (Cook's; Spencer, Ind.) under light mineral oil. The samples were incubated for an hour at 37° C., in a humidified atmosphere of 5% CO2, 5% O2 and 90% nitrogen in a K-MINC-1000 bench top incubator (Cook's; Spencer, Ind.). After incubation, the sperm were drawn into 0.1×2.0 mm I.D. tubes (VitroCom Inc. Mt Lks. N.J.) using capillary action and 3 manually selected fields per sample were analyzed for motility using the Hamilton Thorn (Beverly, Mass.) integrated visual optics system (IVOS) for computerized semen analysis. Applicants have shown that sperm frozen in CPM containing no free radical scavenger, 0.477 mM MTG, 0.1 mM DTT, 1 mM DTT, 5 mM DTT, 20 mM DTT, 0.5 mM GSH, 1 mM GSH, 5 mM GSH or 50 mM GSH can be assessed for motility and that motility of at least 5% is required to achieve fertilization in IVF."}, "[3]": {"settings": "C57BL/6 sperm frozen in CPM containing 1 mM free radical scavenger"}, "[4]": {"settings": "C57BL/6 sperm frozen in CPM containing 5 mM free radical scavenger"}}}
{"smiles": "O[C@H](CS)[C@H](O)CS", "note": "(racemic) [DTT, dithiothreitol]", "values": [{"measurement": "level of reactive oxygen species within cryopreserved mouse sperm (relative fluorescence)", "setting": "[1]", "result": "limited the level of ROS"}, {"measurement": "IVF Fit", "setting": "[2]; 0.1 mM", "result": "yes"}, {"measurement": "IVF Fit", "setting": "[2]; 1 mM", "result": "yes"}, {"measurement": "IVF Fit", "setting": "[2]; 5 mM", "result": "yes"}, {"measurement": "IVF Fit", "setting": "[2]; 20 mM", "result": "no"}, {"measurement": "Average Post Thaw Motility", "setting": "[2]; C57BL/6 sperm frozen in CPM containing 0.1 mM free radical scavenger", "result": 24.6, "unit": "%"}, {"measurement": "Average Post Thaw Motility", "setting": "[2]; [3]", "result": 34, "unit": "%"}, {"measurement": "Average Post Thaw Motility", "setting": "[2]; [4]", "result": 17.6, "unit": "%"}, {"measurement": "Average Post Thaw Motility", "setting": "[2]; C57BL/6 sperm frozen in CPM containing 20 mM free radical scavenger", "result": 1.6, "unit": "%"}]}
{"smiles": "OCC(O)CS", "note": "(stereo not shown) [MTG, monothioglycerol]", "values": [{"measurement": "level of reactive oxygen species within cryopreserved mouse sperm (relative fluorescence)", "setting": "[1]", "result": "limited the level of ROS"}, {"measurement": "ROS in cryopreserved sperm (green fluorescence)", "setting": "[1]; sperm from C57BL/6J (B6) and BALB/cByJ (BALB/cBy) mice, FIG. 3", "result": "reduces the ROS"}, {"measurement": "IVF Fit", "setting": "[2]; 0.477 mM", "result": "yes"}, {"measurement": "Average Post Thaw Motility", "setting": "[2]; C57BL/6 sperm frozen in CPM containing 0.477 mM free radical scavenger", "result": 16, "unit": "%"}]}
{"smiles": "N[C@@H](CCC(=O)N[C@@H](CS)C(=O)NCC(=O)O)C(=O)O", "note": "[GSH, reduced glutathione]", "values": [{"measurement": "level of reactive oxygen species within cryopreserved mouse sperm (relative fluorescence)", "setting": "[1]", "result": "limited the level of ROS"}, {"measurement": "IVF Fit", "setting": "[2]; 0.5 mM", "result": "yes"}, {"measurement": "IVF Fit", "setting": "[2]; 1 mM", "result": "yes"}, {"measurement": "IVF Fit", "setting": "[2]; 5 mM", "result": "yes"}, {"measurement": "IVF Fit", "setting": "[2]; 50 mM", "result": "no"}, {"measurement": "Average Post Thaw Motility", "setting": "[2]; C57BL/6 sperm frozen in CPM containing 0.5 mM free radical scavenger", "result": 32, "unit": "%"}, {"measurement": "Average Post Thaw Motility", "setting": "[2]; [3]", "result": 25.3, "unit": "%"}, {"measurement": "Average Post Thaw Motility", "setting": "[2]; [4]", "result": 41.67, "unit": "%"}, {"measurement": "Average Post Thaw Motility", "setting": "[2]; C57BL/6 sperm frozen in CPM containing 50 mM free radical scavenger", "result": 0.6, "unit": "%"}]}
